Measurements taken from EP1433789A1, “Pyrrolopyrazines and their use as selective apoptosis inducers” (Aponetics AG, priority 2002, dated 2004).

Experiments:
[1] = test system: Jurkat; assay: AnnexinV/7-AAD staining; type: cell-based, human; settings: 10 µM, 24 h treatment
Method in brief: (§1)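 Cells treated with compound at 10 µM final for 24 h, then stained with AnnexinV-GST/anti-GST Alexa 488 and 7-AAD and analysed by flow cytometry. Percent positive cells scored as 0 (<10%), 1 (10–50%) or 2 (>50%).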

[2] = test system: Ramos; assay: AnnexinV/7-AAD staining; type: cell-based, human; settings: 10 µM, 24 h treatment
Method in brief: as §1

[3] = test system: HeLa; assay: AnnexinV/7-AAD staining; type: cell-based, human; settings: 10 µM, 24 h treatment
Method in brief: as §1

[4] = test system: A20; assay: AnnexinV/7-AAD staining; type: cell-based, mouse; settings: A20, 10 µM, 24 h treatment
Method in brief: as §1

[5] = test system: KB; assay: Hoechst 33342 nuclear staining (Table 3); type: cell-based, human; parameters: key: 0 relating to no activity; 1 relating to weak activity comprising less than 50% of the cells; score 2 relating to strong activity comprising more than 50% of the cells
Method in brief: (§2)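 Adherent cells (3-5×10^3, pre-spread 24 h) or suspension cells (8-10×10^3) treated with compounds at 10, 3, 1 and 0.3 µM for 24 or 48 h, then Hoechst 33342 stained for 30 min. Apoptotic nuclear morphology scored by fluorescence microscopy: 0 none, 1 weak (<50% cells), 2 strong (>50% cells).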

[6] = test system: Jurkat; assay: Hoechst 33342 nuclear staining (Table 3); type: cell-based, human; parameters: key: 0 relating to no activity; 1 relating to weak activity comprising less than 50% of the cells; score 2 relating to strong activity comprising more than 50% of the cells
Method in brief: as §2

[7] = test system: K562; assay: Hoechst 33342 nuclear staining (Table 3); type: cell-based, human; parameters: key: 0 relating to no activity; 1 relating to weak activity comprising less than 50% of the cells; score 2 relating to strong activity comprising more than 50% of the cells
Method in brief: as §2

[8] = test system: HeLa; assay: Hoechst 33342 nuclear staining (Table 3); type: cell-based, human; parameters: key: 0 relating to no activity; 1 relating to weak activity comprising less than 50% of the cells; score 2 relating to strong activity comprising more than 50% of the cells
Method in brief: as §2

[9] = test system: Jurkat; assay: PI staining for cell cycle distribution; type: cell-based, human; parameters: key: 0 indicates no occurrence at all; 1 for weak; 2 for strong occurrence; settings: Jurkat 3 uM, 24 h
Description: (§3) 1 - 2*10^5 cells are seeded into 24 well tissue culture plates and incubated for 24 h prior to compound addition. Compounds are added for 24 h in a final concentration of 3 µM or 10 µM. Adherent cells are harvested by trypsinization. The cell suspensions are fixed by adding 2 parts ice cold ethanol 100% while vortexing. Then the samples are stored for > 2 h at-20°C. Subsequently the cells are washed with PBS once and resuspended in 250 µl PBS containing 50 µg/ml PI (Calbiochem # 537059), then the samples are incubated at 37°C for 30 minutes and subsequently analyzed on a FACSCalibur™ monitoring linear PI fluorescence activity on FL2.. The readout allows the detection of a possible direct or indirect influence of the tested compounds on the cell cycle. The following events can occur: a) Generation of a subG1 peak indicative for DNA fragmentation, b) increase of the cell population arrested in G2M phase. Both events are scored by 1 for weak and 2 for strong occurrence. 0 indicates no occurrence at all. […]

[10] = test system: HeLa; assay: PI staining for cell cycle distribution; type: cell-based, human; parameters: key: 0 indicates no occurrence at all; 1 for weak; 2 for strong occurrence; settings: HeLa 10 µM, 24 h
Description: as §3

[11] = test system: A20; assay: MTS proliferation assay; type: cell-based; settings: Mus musculus, A20, 72 h incubation
Description: (§4) The assay is performed in 96 well tissue culture plates. The cells (range : 1.5*10^3-10^4) are seeded out in 80 µl complete medium 24 h prior to compound treatment. The test compounds are added in 20 µl complete medium containing max 5% DMSO. The final compound concentrations in the assays are 10 µM, 3 µM,1 µM and 0.3 µM, respectively. The assay plates are incubated for 72 h at culture conditions. The MTS reagent is prepared according to the manufacturer's protocol (Promega G1111 ). 20 µl MTS reagent are added to each well, the assay plates are quickly spun and incubated for another 3 h at culture conditions. Subsequently, the plates are shortly shaked and absorption measured with a microplate-reader at 492 nm.

[12] = test system: K562; assay: MTS proliferation assay; type: cell-based; settings: Homo sapiens, K562, 72 h incubation
Description: as §4

[13] = test system: HeLa; assay: MTS proliferation assay; type: cell-based; settings: Homo sapiens, 72 h incubation
Description: as §4

## COc1cc2c(cc1OC)-c1cc3nc4ccccc4nc3n1C(C)C2 (stereo not drawn) [compound 8]
[1]
  percentage of positively stained cells (AnnexinV/7-AAD staining): 0 (Score 0 relates to less than 10%)
[2]
  percentage of positively stained cells (AnnexinV/7-AAD staining): 0 (Score 0 relates to less than 10%)
[3]
  percentage of positively stained cells (AnnexinV/7-AAD staining): 1 (score 1 relates to more than 10% but less than 50%)
[4]
  percentage of positively stained cells (AnnexinV/7-AAD staining): 0 (Score 0 relates to less than 10%)
[5]; 24h, conc 0.3 (µM)
  Hoechst 33342 nuclear staining: 0
[5]; 24h, conc 1 (µM)
  Hoechst 33342 nuclear staining: 0
[5]; 24h, conc 3 (µM)
  Hoechst 33342 nuclear staining: 0
[5]; 24h, conc 10 (µM)
  Hoechst 33342 nuclear staining: 0
[5]; 48h, conc 0.3 (µM)
  Hoechst 33342 nuclear staining: 0
[5]; 48h, conc 1 (µM)
  Hoechst 33342 nuclear staining: 0
[5]; 48h, conc 3 (µM)
  Hoechst 33342 nuclear staining: 0
[5]; 48h, conc 10 (µM)
  Hoechst 33342 nuclear staining: 0
[6]; 24h, conc 0.3 (µM)
  Hoechst 33342 nuclear staining: 1 (1 relating to weak activity comprising less than 50% of the cells)
[6]; 24h, conc 1 (µM)
  Hoechst 33342 nuclear staining: 1 (1 relating to weak activity comprising less than 50% of the cells)
[6]; 24h, conc 3 (µM)
  Hoechst 33342 nuclear staining: 2 (score 2 relating to strong activity comprising more than 50% of the cells)
[6]; 24h, conc 10 (µM)
  Hoechst 33342 nuclear staining: 2 (score 2 relating to strong activity comprising more than 50% of the cells)
[6]; 48h, conc 0.3 (µM)
  Hoechst 33342 nuclear staining: 1 (1 relating to weak activity comprising less than 50% of the cells)
[6]; 48h, conc 1 (µM)
  Hoechst 33342 nuclear staining: 2 (score 2 relating to strong activity comprising more than 50% of the cells)
[6]; 48h, conc 3 (µM)
  Hoechst 33342 nuclear staining: 2 (score 2 relating to strong activity comprising more than 50% of the cells)
[6]; 48h, conc 10 (µM)
  Hoechst 33342 nuclear staining: 2 (score 2 relating to strong activity comprising more than 50% of the cells)
[7]; K562, 24h, conc 0.3 (µM)
  Hoechst 33342 nuclear staining: 0
[7]; K562, 24h, conc 1 (µM)
  Hoechst 33342 nuclear staining: 0
[7]; K562, 24h, conc 3 (µM)
  Hoechst 33342 nuclear staining: 0
[7]; K562, 48h, conc 0.3 (µM)
  Hoechst 33342 nuclear staining: 0
[7]; K562, 48h, conc 1 (µM)
  Hoechst 33342 nuclear staining: 2 (score 2 relating to strong activity comprising more than 50% of the cells)
[7]; K562, 48h, conc 3 (µM)
  Hoechst 33342 nuclear staining: 2 (score 2 relating to strong activity comprising more than 50% of the cells)
[7]; K562, 48h, conc 10 (µM)
  Hoechst 33342 nuclear staining: 2 (score 2 relating to strong activity comprising more than 50% of the cells)
[8]; 24h, conc 0.3 (µM)
  Hoechst 33342 nuclear staining: 0
[8]; 24h, conc 1 (µM)
  Hoechst 33342 nuclear staining: 0
[8]; 24h, conc 3 (µM)
  Hoechst 33342 nuclear staining: 0
[8]; 24h, conc 10 (µM)
  Hoechst 33342 nuclear staining: 0
[8]; 48h, conc 0.3 (µM)
  Hoechst 33342 nuclear staining: 0
[8]; 48h, conc 1 (µM)
  Hoechst 33342 nuclear staining: 0
[8]; 48h, conc 3 (µM)
  Hoechst 33342 nuclear staining: 1 (1 relating to weak activity comprising less than 50% of the cells)
[8]; 48h, conc 10 (µM)
  Hoechst 33342 nuclear staining: 2 (score 2 relating to strong activity comprising more than 50% of the cells)
[9]
  G2M (increase of the cell population arrested in G2M phase): 0
  subG1 (generation of a subG1 peak indicative for DNA fragmentation): 1
[10]
  G2M (increase of the cell population arrested in G2M phase): 0
  subG1 (generation of a subG1 peak indicative for DNA fragmentation): 1
[11]
  IC50: 1 to 10 µM
[12]
  IC50: > 10 µM
[13]
  IC50: 1 to 10 µM
